Reference: ChEMBL document CHEMBL3421625, “Discovery and optimization of novel antagonists to the human neurokinin-3 receptor for the treatment of sex-hormone disorders (Part I)” (J Med Chem, 2015)

What was measured:
[1] = Apparent permeability across apical to basolateral side in human Caco2 cells in presence of 0.1% bovine serum albumin; conditions: Caco-2
[2] = Apparent permeability across basolateral to apical side in human Caco2 cells in presence of 0.1% bovine serum albumin; conditions: Caco-2
[3] = Ratio of apparent permeability across apical to basolateral over basolateral to apical side in human Caco2 cells in presence of 0.1% bovine serum albumin; assay type: ADME, cell-based; conditions: Caco-2
[4] = biological target: Kappa-type opioid receptor (Homo sapiens) (UniProt P41145); assay: Inhibition of KOR (unknown origin) at 10 uM relative to control
Kappa-type opioid receptor (Homo sapiens), sequence (P41145 whole entry): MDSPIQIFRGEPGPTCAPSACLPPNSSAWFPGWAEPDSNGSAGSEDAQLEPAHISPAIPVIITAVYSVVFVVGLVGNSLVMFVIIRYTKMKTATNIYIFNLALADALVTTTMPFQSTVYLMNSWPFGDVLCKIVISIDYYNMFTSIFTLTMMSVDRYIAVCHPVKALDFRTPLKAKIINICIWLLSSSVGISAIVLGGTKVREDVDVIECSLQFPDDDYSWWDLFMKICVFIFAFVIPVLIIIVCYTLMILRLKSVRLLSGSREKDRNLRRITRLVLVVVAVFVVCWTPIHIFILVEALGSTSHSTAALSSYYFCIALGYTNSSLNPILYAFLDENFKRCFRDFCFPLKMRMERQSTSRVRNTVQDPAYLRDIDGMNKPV

[5] = biological target: Adenosine receptor A1 (Homo sapiens) (UniProt P30542); assay: Displacement of [3H]DPCPX from recombinant human adenosine A1 receptor expressed in CHO cells after 60 mins by scintillation counting analysis relative to control; assay type: cell-based
Adenosine receptor A1 (Homo sapiens), sequence (P30542 whole entry): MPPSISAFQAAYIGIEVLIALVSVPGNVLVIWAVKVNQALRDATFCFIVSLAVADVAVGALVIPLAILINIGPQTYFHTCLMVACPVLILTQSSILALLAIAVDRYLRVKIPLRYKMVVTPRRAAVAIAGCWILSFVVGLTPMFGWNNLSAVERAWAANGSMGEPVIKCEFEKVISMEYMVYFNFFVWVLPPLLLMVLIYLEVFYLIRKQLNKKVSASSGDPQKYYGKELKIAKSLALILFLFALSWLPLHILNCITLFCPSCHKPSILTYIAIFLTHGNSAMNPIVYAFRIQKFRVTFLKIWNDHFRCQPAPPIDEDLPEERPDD

[6] = biological target: Adenosine receptor A3 (Homo sapiens) (UniProt P0DMS8); assay: Inhibition of recombinant human adenosine A3 receptor expressed in HEK293 cells by radioligand displacement assay relative to control; assay type: cell-based; conditions: concentration not given here
[7] = biological target: Translocator protein (Homo sapiens) (UniProt P30536); assay: Inhibition of benzodiazepine receptor (unknown origin) by radioligand displacement assay relative to control; conditions: concentration not given here
[8] = biological target: Gastrin/cholecystokinin type B receptor (Homo sapiens) (UniProt P32239); assay: Inhibition of recombinant human CCK2 receptor expressed in CHO cells by radioligand displacement assay relative to control; assay type: cell-based; conditions: concentration not given here
[9] = biological target: Prostaglandin E2 receptor EP4 subtype (Homo sapiens) (UniProt P35408); assay: Inhibition of recombinant human prostanoid receptor EP4 expressed in HEK293 cells by radioligand displacement assay relative to control; assay type: cell-based; conditions: concentration not given here
[10] = Fraction unbound in rat plasma at 5 uM after 4 hrs by equilibrium dialysis method; assay type: ADME, cell-free
[11] = Total systemic clearance in Sprague-Dawley rat at 1 mg/kg, iv by LC-MS/MS analysis; assay type: ADME, organism-based; set-up: dose 1 mg/kg, route intravenous; conditions: in vivo
Rattus norvegicus [12] = assay: Unbound AUC in Sprague-Dawley rat at 1 mg/kg, iv by LC-MS/MS analysis; assay type: ADME, organism-based; set-up: dose 1 mg/kg, route intravenous; conditions: in vivo
Rattus norvegicus [13] = assay: Unbound AUC in Sprague-Dawley rat at 3 mg/kg, po by LC-MS/MS analysis; assay type: ADME, organism-based; set-up: dose 3 mg/kg, route oral; conditions: in vivo
Rattus norvegicus [14] = assay: Unbound Cmax in Sprague-Dawley rat at 3 mg/kg, po by LC-MS/MS analysis; assay type: ADME, organism-based; set-up: dose 3 mg/kg, route oral; conditions: in vivo
[15] = Fraction unbound in rat brain at 5 uM after 4 hrs by equilibrium dialysis method; assay type: ADME, tissue-based
in vivo [16] = conditions: Sprague-Dawley, rat, iv, 1 mg/kg
Description: Volume of distribution at steady state in Sprague-Dawley rat at 1 mg/kg, iv by LC-MS/MS analysis

in vivo [17] = conditions: Sprague-Dawley, rat, iv, 1 mg/kg; remark: listed apart in the source
in vivo [18] = conditions: Sprague-Dawley, rat, po, 3 mg/kg
in vivo [19] = conditions: Sprague-Dawley, rat, po, 3 mg/kg; remark: listed apart in the source
[20] = Lipophilicity, log D of the compound at pH 7.4; assay type: physicochemical; conditions: buffer, read-out: logD
[21] = biological target: Kappa-type opioid receptor (Homo sapiens) (UniProt P41145); assay: Inhibition of KOR (unknown origin) at 1 uM relative to control
[22] = biological target: Mu-type opioid receptor (Homo sapiens) (UniProt P35372); assay: Inhibition of recombinant human mu opioid receptor expressed in HEK293 cells at 1 uM by radioligand displacement assay relative to control; assay type: cell-based
[23] = biological target: Muscarinic acetylcholine receptor M3 (Homo sapiens) (UniProt P20309); assay: Displacement of [3H]4-DAMP from recombinant human muscarinic M3 receptor expressed in CHO cells at 1 uM after 60 mins by scintillation counting analysis relative to control; assay type: cell-based
[24] = biological target: Muscarinic acetylcholine receptor M4 (Homo sapiens) (UniProt P08173); assay: Displacement of [3H]4-DAMP from recombinant human muscarinic M4 receptor expressed in CHO cells at 1 uM after 60 mins by scintillation counting analysis relative to control; assay type: cell-based
[25] = biological target: Muscarinic acetylcholine receptor M5 (Homo sapiens) (UniProt P08912); assay: Displacement of [3H]4-DAMP from recombinant human muscarinic M5 receptor expressed in CHO cells at 1 uM after 60 mins by scintillation counting analysis relative to control; assay type: cell-based
Muscarinic acetylcholine receptor M5 (Homo sapiens), sequence (P08912 whole entry): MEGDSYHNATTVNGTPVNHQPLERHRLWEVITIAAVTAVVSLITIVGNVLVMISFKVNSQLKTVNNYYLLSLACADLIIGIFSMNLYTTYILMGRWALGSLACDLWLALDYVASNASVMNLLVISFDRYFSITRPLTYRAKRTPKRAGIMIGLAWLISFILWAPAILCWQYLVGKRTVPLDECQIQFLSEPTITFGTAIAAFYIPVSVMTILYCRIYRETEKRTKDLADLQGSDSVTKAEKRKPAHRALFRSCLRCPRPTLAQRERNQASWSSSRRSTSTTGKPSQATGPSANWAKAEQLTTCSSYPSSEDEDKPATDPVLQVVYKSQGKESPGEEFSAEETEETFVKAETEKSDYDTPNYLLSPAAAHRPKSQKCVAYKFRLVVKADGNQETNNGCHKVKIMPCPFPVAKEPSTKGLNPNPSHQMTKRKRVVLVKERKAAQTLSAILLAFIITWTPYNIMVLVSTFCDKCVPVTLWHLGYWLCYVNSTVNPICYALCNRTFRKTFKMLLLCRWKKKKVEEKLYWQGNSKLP

[26] = biological target: D(3) dopamine receptor (Homo sapiens) (UniProt P35462); assay: Displacement of [3H]methyl-spiperone from recombinant human dopamine D3 receptor expressed in CHO cells at 1 uM by scintillation counting analysis relative to control; assay type: cell-based
D(3) dopamine receptor (Homo sapiens), sequence (P35462 whole entry): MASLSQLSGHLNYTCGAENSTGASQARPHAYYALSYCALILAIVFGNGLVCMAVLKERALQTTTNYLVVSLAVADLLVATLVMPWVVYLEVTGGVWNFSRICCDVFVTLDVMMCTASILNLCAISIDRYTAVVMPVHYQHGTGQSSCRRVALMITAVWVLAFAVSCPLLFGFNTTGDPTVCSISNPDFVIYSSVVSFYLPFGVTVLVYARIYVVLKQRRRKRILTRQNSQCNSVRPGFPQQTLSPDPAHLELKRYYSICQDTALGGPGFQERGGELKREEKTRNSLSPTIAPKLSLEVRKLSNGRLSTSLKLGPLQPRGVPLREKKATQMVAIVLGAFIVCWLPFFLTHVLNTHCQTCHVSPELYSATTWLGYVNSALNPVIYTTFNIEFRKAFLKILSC

[27] = biological target: Delta-type opioid receptor (Rattus norvegicus) (UniProt P33533); assay: Displacement of [3H]naloxone from delta opioid receptor in rat cerebral cortex at 1 uM after 40 mins by scintillation counting analysis relative to control; assay type: tissue-based
Delta-type opioid receptor (Rattus norvegicus), sequence (P33533 whole entry): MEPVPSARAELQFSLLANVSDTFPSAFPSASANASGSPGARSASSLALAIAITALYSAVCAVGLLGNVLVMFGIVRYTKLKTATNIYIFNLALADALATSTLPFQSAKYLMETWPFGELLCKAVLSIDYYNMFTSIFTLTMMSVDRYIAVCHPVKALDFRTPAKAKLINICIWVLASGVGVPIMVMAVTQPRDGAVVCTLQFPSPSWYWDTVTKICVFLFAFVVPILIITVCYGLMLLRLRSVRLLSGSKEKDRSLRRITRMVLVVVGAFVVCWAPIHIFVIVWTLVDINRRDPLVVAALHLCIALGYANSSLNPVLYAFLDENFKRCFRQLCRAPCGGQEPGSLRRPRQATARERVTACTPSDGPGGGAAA

[28] = biological target: 5-hydroxytryptamine receptor 1A (Homo sapiens) (UniProt P08908); assay: Inhibition of recombinant human 5HT1A receptor expressed in HEK293 cells at 1 uM by radioligand displacement assay relative to control; assay type: cell-based
5-hydroxytryptamine receptor 1A (Homo sapiens), sequence (P08908 whole entry): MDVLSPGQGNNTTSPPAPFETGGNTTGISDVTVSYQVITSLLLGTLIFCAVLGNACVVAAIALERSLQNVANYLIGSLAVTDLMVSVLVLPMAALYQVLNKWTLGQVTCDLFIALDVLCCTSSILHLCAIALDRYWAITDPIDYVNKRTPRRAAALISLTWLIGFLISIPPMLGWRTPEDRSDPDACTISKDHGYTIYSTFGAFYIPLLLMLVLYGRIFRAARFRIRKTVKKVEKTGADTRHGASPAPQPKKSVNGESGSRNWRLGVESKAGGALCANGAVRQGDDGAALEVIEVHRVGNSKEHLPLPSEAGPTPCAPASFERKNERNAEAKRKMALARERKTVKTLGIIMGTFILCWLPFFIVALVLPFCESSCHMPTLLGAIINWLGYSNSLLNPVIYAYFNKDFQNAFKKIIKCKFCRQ

[29] = biological target: 5-hydroxytryptamine receptor 2A (Homo sapiens) (UniProt P28223); assay: Displacement of [3H]ketanserin from recombinant human 5HT2A receptor expressed in HEK293 cells at 1 uM after 60 mins by scintillation counting analysis relative to control; assay type: cell-based
5-hydroxytryptamine receptor 2A (Homo sapiens), sequence (P28223 whole entry): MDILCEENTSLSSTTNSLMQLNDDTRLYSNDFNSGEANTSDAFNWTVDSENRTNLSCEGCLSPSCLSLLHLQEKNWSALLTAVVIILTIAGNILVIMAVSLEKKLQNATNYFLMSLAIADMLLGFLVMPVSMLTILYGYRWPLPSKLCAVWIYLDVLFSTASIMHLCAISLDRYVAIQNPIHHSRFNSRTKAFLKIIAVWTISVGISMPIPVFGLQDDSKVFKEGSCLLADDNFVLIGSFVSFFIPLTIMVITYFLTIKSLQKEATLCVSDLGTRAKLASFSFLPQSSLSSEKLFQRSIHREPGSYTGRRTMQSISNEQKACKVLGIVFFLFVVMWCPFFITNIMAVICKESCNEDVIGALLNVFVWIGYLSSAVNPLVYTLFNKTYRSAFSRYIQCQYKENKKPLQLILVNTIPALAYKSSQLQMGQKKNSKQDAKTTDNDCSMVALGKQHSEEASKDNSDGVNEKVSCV

[30] = biological target: 5-hydroxytryptamine receptor 2B (Homo sapiens) (UniProt P41595); assay: Displacement of [3H]mesulergine from recombinant human 5HT2B receptor expressed in CHO cells at 1 uM after 60 mins by scintillation counting analysis relative to control; assay type: cell-based
5-hydroxytryptamine receptor 2B (Homo sapiens), sequence (P41595 whole entry): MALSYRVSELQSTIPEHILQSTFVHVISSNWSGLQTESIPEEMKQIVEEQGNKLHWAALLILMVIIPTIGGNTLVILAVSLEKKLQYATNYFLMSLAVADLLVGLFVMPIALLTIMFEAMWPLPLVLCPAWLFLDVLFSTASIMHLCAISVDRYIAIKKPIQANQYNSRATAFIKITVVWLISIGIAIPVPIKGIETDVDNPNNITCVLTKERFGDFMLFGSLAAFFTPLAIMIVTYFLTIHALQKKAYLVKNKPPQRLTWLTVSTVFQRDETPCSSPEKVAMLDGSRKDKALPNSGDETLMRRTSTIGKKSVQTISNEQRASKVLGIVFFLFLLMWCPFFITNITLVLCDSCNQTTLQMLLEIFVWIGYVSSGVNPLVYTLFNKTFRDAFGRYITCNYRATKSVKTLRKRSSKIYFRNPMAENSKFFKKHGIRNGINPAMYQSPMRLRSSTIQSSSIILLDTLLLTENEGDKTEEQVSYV

[31] = biological target: 5-hydroxytryptamine receptor 7 (Homo sapiens) (UniProt P34969); assay: Inhibition of recombinant human 5HT7 receptor expressed in CHO cells at 1 uM by radioligand displacement assay relative to control; assay type: cell-based
[32] = biological target: Histamine H2 receptor (Homo sapiens) (UniProt P25021); assay: Displacement of [125I]APT from recombinant human histamine H2 receptor expressed in CHO cells at 1 uM after 120 mins by scintillation counting analysis relative to control; assay type: cell-based
Histamine H2 receptor (Homo sapiens), sequence (P25021 whole entry): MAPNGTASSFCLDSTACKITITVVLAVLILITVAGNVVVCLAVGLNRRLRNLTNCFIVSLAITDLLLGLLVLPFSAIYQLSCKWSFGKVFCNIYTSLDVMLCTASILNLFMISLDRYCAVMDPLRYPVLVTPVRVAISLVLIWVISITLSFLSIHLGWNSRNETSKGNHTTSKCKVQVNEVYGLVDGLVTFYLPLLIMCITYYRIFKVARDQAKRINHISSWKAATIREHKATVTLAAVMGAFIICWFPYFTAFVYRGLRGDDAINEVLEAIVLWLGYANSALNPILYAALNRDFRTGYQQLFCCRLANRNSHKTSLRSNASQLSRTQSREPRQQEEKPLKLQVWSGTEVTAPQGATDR

[33] = biological target: Sodium-dependent noradrenaline transporter (Homo sapiens) (UniProt P23975); assay: Displacement of [3H]nisoxetine from recombinant human norepinephrine transporter expressed in CHO cells at 1 uM after 120 mins by scintillation counting analysis relative to control; assay type: cell-based
[34] = biological target: Sodium-dependent dopamine transporter (Homo sapiens) (UniProt Q01959); assay: Displacement of [3H]BTCP from recombinant human dopamine transporter expressed in CHO cells at 1 uM after 120 mins by scintillation counting analysis relative to control; assay type: cell-based
Sodium-dependent dopamine transporter (Homo sapiens), sequence (Q01959 whole entry): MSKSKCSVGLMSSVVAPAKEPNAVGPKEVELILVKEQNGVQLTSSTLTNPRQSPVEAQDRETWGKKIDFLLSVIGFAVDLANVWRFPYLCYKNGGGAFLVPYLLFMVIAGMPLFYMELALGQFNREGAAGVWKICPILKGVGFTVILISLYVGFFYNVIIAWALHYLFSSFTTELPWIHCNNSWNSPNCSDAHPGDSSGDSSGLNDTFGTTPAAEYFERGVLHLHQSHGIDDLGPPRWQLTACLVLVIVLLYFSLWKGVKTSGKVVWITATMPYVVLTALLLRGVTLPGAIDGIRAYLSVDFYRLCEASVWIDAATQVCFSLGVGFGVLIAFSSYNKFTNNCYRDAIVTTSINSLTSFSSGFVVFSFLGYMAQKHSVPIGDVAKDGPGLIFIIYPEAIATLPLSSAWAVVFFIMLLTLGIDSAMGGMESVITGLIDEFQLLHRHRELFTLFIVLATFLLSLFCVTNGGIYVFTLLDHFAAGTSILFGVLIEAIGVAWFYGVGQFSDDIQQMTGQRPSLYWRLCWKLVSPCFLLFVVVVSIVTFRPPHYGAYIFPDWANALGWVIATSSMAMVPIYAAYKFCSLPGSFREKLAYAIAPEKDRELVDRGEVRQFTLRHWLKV

[35] = biological target: Kappa-type opioid receptor (Rattus norvegicus) (UniProt P34975); assay: Inhibition of rat recombinant KOR expressed in CHO cells at 1 uM by radioligand displacement assay relative to control; assay type: cell-based
[36] = Solubility of the compound in PBS buffer at pH 7.4 by shake-flask method; assay type: physicochemical
Cytochrome P450 3A4 = Cytochrome P450 3A4 (Homo sapiens, UniProt P08684); assay: Inhibition of CYP3A4 (unknown origin) by luciferase reporter assay in presence of NADPH regeneration system; assay type: ADME
Cytochrome P450 2D6 = Cytochrome P450 2D6 (Homo sapiens, UniProt P10635); assay: Inhibition of CYP2D6 (unknown origin) by luciferase reporter assay in presence of NADPH regeneration system; assay type: ADME
Cytochrome P450 2C9 = Cytochrome P450 2C9 (Homo sapiens, UniProt P11712); assay: Inhibition of CYP2C9 (unknown origin) by luciferase reporter assay in presence of NADPH regeneration system; assay type: ADME
Cytochrome P450 2C9, sequence (P11712 whole entry): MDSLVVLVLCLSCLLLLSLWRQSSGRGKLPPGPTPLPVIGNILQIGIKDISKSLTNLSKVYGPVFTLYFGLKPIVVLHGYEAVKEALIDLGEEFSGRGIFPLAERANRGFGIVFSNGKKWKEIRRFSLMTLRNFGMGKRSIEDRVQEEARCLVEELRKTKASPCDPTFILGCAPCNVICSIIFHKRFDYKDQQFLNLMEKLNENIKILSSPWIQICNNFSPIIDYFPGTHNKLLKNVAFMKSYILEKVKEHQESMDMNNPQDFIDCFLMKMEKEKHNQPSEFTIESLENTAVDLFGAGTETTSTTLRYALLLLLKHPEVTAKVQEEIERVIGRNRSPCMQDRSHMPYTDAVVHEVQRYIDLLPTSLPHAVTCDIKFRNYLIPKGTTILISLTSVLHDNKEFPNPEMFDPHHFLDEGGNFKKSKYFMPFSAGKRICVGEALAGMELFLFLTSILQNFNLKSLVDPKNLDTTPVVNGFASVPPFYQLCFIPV

Cytochrome P450 2C19 = Cytochrome P450 2C19 (Homo sapiens, UniProt P33261); assay: Inhibition of CYP2C19 (unknown origin) by luciferase reporter assay in presence of NADPH regeneration system
Cytochrome P450 1A2 = biological target: T1, Cytochrome P450 1A2 (Homo sapiens, UniProt P05177); assay: Inhibition of CYP1A2 (unknown origin) by luciferase reporter assay in presence of NADPH regeneration system; assay type: ADME
T1 sequence (P05177 whole entry): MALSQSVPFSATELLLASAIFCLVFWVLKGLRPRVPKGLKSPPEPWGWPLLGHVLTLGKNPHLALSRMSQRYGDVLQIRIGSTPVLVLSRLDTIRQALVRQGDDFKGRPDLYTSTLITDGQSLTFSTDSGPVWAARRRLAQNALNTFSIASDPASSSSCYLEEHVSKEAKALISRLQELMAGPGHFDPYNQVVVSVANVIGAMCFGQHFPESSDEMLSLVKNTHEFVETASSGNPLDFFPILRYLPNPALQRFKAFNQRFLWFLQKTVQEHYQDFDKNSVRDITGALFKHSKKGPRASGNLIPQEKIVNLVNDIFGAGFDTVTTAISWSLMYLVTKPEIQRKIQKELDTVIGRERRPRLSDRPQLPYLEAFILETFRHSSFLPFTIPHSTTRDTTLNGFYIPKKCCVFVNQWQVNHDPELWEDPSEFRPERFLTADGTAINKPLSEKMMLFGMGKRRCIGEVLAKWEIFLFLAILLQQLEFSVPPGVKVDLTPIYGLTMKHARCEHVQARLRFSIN

[37] = Half life in rat liver microsomes; assay type: ADME
[38] = Half life in human liver microsomes; assay type: ADME
Neuromedin-K receptor [39] = biological target: T2, Neuromedin-K receptor (Homo sapiens, UniProt P29371)
T2 sequence (P29371 whole entry): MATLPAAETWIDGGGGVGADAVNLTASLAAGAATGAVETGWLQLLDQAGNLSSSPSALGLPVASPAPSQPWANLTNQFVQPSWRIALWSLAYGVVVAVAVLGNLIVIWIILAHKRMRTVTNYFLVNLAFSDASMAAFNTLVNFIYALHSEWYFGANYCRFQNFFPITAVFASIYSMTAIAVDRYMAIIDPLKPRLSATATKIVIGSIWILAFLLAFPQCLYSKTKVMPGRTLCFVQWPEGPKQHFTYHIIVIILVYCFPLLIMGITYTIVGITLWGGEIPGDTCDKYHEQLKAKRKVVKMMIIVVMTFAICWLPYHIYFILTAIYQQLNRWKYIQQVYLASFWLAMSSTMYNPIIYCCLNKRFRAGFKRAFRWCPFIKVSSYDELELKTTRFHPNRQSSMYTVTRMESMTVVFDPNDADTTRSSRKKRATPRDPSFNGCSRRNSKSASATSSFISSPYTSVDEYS

Neuromedin-K receptor [40] = biological target: T2, Neuromedin-K receptor; assay: biochemical
Description: Displacement of [3H]-SB222200 from recombinant human NK3R expressed in CHO cell membranes after 90 mins by scintillation counting analysis

CC(C)NCC(O)COc1cccc2ccccc12 (configuration not stated) [PROPRANOLOL]
Papp A→B [1]: ≥ 45 ×10⁻⁶ cm/s | Papp B→A [2]: ≥ 45 ×10⁻⁶ cm/s | Ratio [3]: 1

CC[C@H](NC(=O)c1c(O)c(-c2ccccc2)nc2ccccc12)c1ccccc1 [TALNETANT]
inhibition [4]: 12% | inhibition [5]: > 60% | inhibition [6]: > 60% | inhibition [7]: > 60% | inhibition [8]: > 60% | inhibition [9]: > 60% | fraction unbound at 4 h, 5 µM [10]: 0.0003 | Papp A→B [1]: 87.2 ×10⁻⁶ cm/s | Papp B→A [2]: 98.5 ×10⁻⁶ cm/s | clearance [11]: 2 mL/min/kg | fAUC (Rattus norvegicus [12]): 0.5 µM·min | fAUC (Rattus norvegicus [13]): 0.7 µM·min | fCmax (Rattus norvegicus [14]): 2.65 nM | fraction unbound at 4 h, 5 µM [15]: 0.01 | Vd (in vivo [16]): 1.5 L/kg | half-life (in vivo [17]): 7.47 h | Tmax (in vivo [18]): 1 h | bioavailability (in vivo [19]): 47%

CC(=O)N(C)C1(c2ccccc2)CCN(CCC[C@]2(c3ccc(Cl)c(Cl)c3)CCCN(C(=O)c3ccccc3)C2)CC1 [OSANETANT]
logD [20]: 3.4 | inhibition [4]: 100% | inhibition [21]: 75% | inhibition [22]: > 50% | inhibition [23]: > 50% | inhibition [24]: > 50% | inhibition [25]: > 50% | inhibition [26]: > 50% | inhibition [27]: > 50% | inhibition [28]: > 50% | inhibition [29]: > 50% | inhibition [30]: > 50% | inhibition [31]: > 50% | inhibition [32]: > 50% | inhibition [33]: > 50% | inhibition [34]: > 50% | fraction unbound at 4 h, 5 µM [10]: 0.006 | fAUC (Rattus norvegicus [12]): 0.2 µM·min | fAUC (Rattus norvegicus [13]): 0.1 µM·min | fCmax (Rattus norvegicus [14]): 0.42 nM | fraction unbound at 4 h, 5 µM [15]: 0.001 | inhibition [35]: > 50% | half-life (in vivo [17]): 2.02 h | Tmax (in vivo [18]): 0.75 h

O=C(c1ccc(F)cc1)N1CCn2c(nnc2-c2ccccn2)C1
logD [20]: 1.1 | solubility thermodynamic [36]: ≥ 200 µM | IC50 (Cytochrome P450 3A4): > 100 µM | IC50 (Cytochrome P450 2D6): 15 µM | IC50 (Cytochrome P450 2C9): 66 µM | IC50 (Cytochrome P450 2C19): 14 µM | IC50 (Cytochrome P450 1A2): 27 µM | half-life [37]: > 4 h | half-life [38]: > 4 h | IC50 (Neuromedin-K receptor [39]): 4 µM | bioavailability (in vivo [19]): 108% | Ki (Neuromedin-K receptor [40]): 4.5 µM
